# From patent US7767659B2, “Synthesis of naturally occurring ecteinascidins and related compounds” (Pharma Mar, S.A., priority 2002, dated 2010)
# Assays:
# [1] = system: A-549; test: cells; details: Homo sapiens, A549, 48 h; for GI50: read-out: A549 GI50; for CC50: read-out: A549 LC50; for IC (TGI): read-out: A549 TGI
# Summary of the method: (§1)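 Colorimetric SRB read (490 nm) on triplicate wells after 48 h at 37 °C, 5% CO2. Dose range 10 to 10^−8 μg/ml; 5×10^3 cells/well pre-attached 18 h.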
# [2] = system: HT-29; test: cells; details: Homo sapiens, HT-29, 48 h; for GI50: read-out: HT29 GI50; for CC50: read-out: HT29 LC50; for IC (TGI): read-out: HT29 TGI
# Summary of the method: as §1
# [3] = system: LoVo; test: cells; details: Homo sapiens, LoVo, 48 h; for GI50: read-out: LOVO GI50; for CC50: read-out: LOVO LC50; for IC (TGI): read-out: LOVO TGI
# Summary of the method: as §1
# [4] = system: DU-145; test: Inhibition of cells growth by colorimetric assay (SRB); details: Homo sapiens, DU-145, 48 h; for GI50: read-out: DU145 GI50; for CC50: read-out: DU145 LC50; for IC (TGI): read-out: DU145 TGI
# Summary of the method: as §1
# [5] = system: HeLa-APL; test: as above; details: Homo sapiens, 48 h; for GI50: read-out: HELA-APL GI50; for CC50: read-out: HELA-APL LC50; for IC (TGI): read-out: HELA-APL TGI
# Summary of the method: as §1
# [6] = system: HeLa; test: as above; details: Homo sapiens, HeLa, 48 h; for GI50: read-out: HELA GI50; for CC50: read-out: HELA LC50; for IC (TGI): read-out: HELA TGI
# Summary of the method: as §1
# [7] = system: IGROV-1; test: as above; details: Homo sapiens, IGROV-1, 48 h; for GI50: read-out: IGROV GI50; for CC50: read-out: IGROV LC50; for IC (TGI): read-out: IGROV TGI
# Summary of the method: as §1
# [8] = system: IGROV-ET; test: as above; details: Homo sapiens, 48 h; for GI50: read-out: IGROV-ET GI50; for CC50: read-out: IGROV-ET LC50; for IC (TGI): read-out: IGROV-ET TGI
# Summary of the method: as §1
# [9] = system: K-562; test: as above; details: Homo sapiens, K562, 48 h; for GI50: read-out: K562 GI50; for CC50: read-out: K562 LC50; for IC (TGI): read-out: K562 TGI
# Summary of the method: as §1
# [10] = system: LNCaP; test: as above; details: Homo sapiens, LNCaP, 48 h; for GI50: read-out: LNCAP GI50; for CC50: read-out: LNCAP LC50; for IC (TGI): read-out: LNCAP TGI
# Summary of the method: as §1
# [11] = system: LoVo-Dox; test: as above; details: Homo sapiens, 48 h; for GI50: read-out: LOVO-DOX GI50; for CC50: read-out: LOVO-DOX LC50; for IC (TGI): read-out: LOVO-DOX TGI
# Summary of the method: as §1
# [12] = system: PANC-1; test: as above; details: Homo sapiens, PANC-1, 48 h; for GI50: read-out: PANC-1 GI50; for CC50: read-out: PANC-1 LC50; for IC (TGI): read-out: PANC-1 TGI
# Summary of the method: as §1
# [13] = system: SK-BR-3; test: as above; details: Homo sapiens, SK-BR-3, 48 h; for GI50: read-out: SK-BR3 GI50; for CC50: read-out: SK-BR3 LC50; for IC (TGI): read-out: SK-BR3 TGI
# Summary of the method: as §1
# [14] = system: SK-MEL-28; test: as above; details: Homo sapiens, SK-MEL-28, 48 h; for GI50: read-out: MEL-28 GI50; for CC50: read-out: MEL-28 LC50; for IC (TGI): read-out: MEL-28 TGI
# Summary of the method: as §1
compound,measurement,setting,value
COc1cc2c(cc1O)CCN[C@]21CS[C@@H]2c3c(OC(=O)/C=C/c4ccccc4)c(C)c4c(c3[C@H](COC1=O)N1C2[C@@H]2N[C@@H](Cc3cc(C)c(OC)c(O)c32)[C@@H]1C#N)OCO4 (stereo partly drawn) [compound 51],GI50,[1],2.85 nM
same,CC50,[1],542 nM
same,IC (TGI),[1],6.59 nM
same,GI50,[2],5.24 nM
same,CC50,[2],11.8 nM
same,IC (TGI),[2],2370 nM
same,GI50,[3],3.93 nM
same,CC50,[3],11800 nM
same,IC (TGI),[3],8.86 nM
same,GI50,[4],5.24 nM
same,CC50,[4],11800 nM
same,IC (TGI),[4],16.3 nM
same,GI50,[5],3.49 nM
same,CC50,[5],10.9 nM
same,IC (TGI),[5],6.18 nM
same,GI50,[6],3.43 nM
same,CC50,[6],15.5 nM
same,IC (TGI),[6],6.63 nM
same,GI50,[7],3.35 nM
same,CC50,[7],118000 nM
same,IC (TGI),[7],6.45 nM
same,GI50,[8],43.6 nM
same,CC50,[8],11800 nM
same,IC (TGI),[8],118 nM
same,GI50,[9],3.15 nM
same,CC50,[9],653 nM
same,IC (TGI),[9],7.75 nM
same,GI50,[10],2.31 nM
same,CC50,[10],6.82 nM
same,IC (TGI),[10],3.96 nM
same,GI50,[11],352 nM
same,CC50,[11],11800 nM
same,IC (TGI),[11],11800 nM
same,GI50,[12],3.53 nM
same,CC50,[12],520 nM
same,IC (TGI),[12],7.73 nM
same,GI50,[13],5.05 nM
same,CC50,[13],11800 nM
same,IC (TGI),[13],344 nM
same,GI50,[14],2.71 nM
same,CC50,[14],7.94 nM
same,IC (TGI),[14],4.64 nM
CCCCCCCC(=O)Oc1c(C)c2c(c3c1[C@H]1SC[C@]4(NCCc5cc(O)c(OC)cc54)C(=O)OC[C@@H]3N3C1[C@@H]1N[C@@H](Cc4cc(C)c(OC)c(O)c41)[C@@H]3C#N)OCO2 (stereo partly drawn) [compound 52],GI50,[1],8.01 nM
same,CC50,[1],973 nM
same,IC (TGI),[1],57.8 nM
same,GI50,[2],6.14 nM
same,CC50,[2],7780 nM
same,IC (TGI),[2],1250 nM
same,GI50,[3],9.17 nM
same,CC50,[3],85.7 nM
same,IC (TGI),[3],29.6 nM
same,GI50,[4],4.92 nM
same,CC50,[4],5140 nM
same,IC (TGI),[4],19.3 nM
same,GI50,[5],7.05 nM
same,CC50,[5],92.3 nM
same,IC (TGI),[5],21.4 nM
same,GI50,[6],5.98 nM
same,CC50,[6],1850 nM
same,IC (TGI),[6],22.5 nM
same,GI50,[7],7.32 nM
same,CC50,[7],3060 nM
same,IC (TGI),[7],43.3 nM
same,GI50,[8],39.5 nM
same,CC50,[8],8530 nM
same,IC (TGI),[8],119 nM
same,GI50,[9],4.51 nM
same,CC50,[9],80.6 nM
same,IC (TGI),[9],21.3 nM
same,GI50,[10],2.39 nM
same,CC50,[10],9.06 nM
same,IC (TGI),[10],4.66 nM
same,GI50,[11],273 nM
same,CC50,[11],11900 nM
same,IC (TGI),[11],11900 nM
same,GI50,[12],21.5 nM
same,CC50,[12],610 nM
same,IC (TGI),[12],62.4 nM
same,GI50,[13],6.18 nM
same,CC50,[13],11900 nM
same,IC (TGI),[13],258 nM
same,GI50,[14],4.07 nM
same,CC50,[14],52.7 nM
same,IC (TGI),[14],15.5 nM
